Source: US8318731B2, “Pyrrolopyrimidines” (Janssen Pharmaceutica NV, priority 2007, dated 2012)

Legend:
[1] = tested on: HCT-116; assay: Cellular proliferation assay (Alamar blue), HCT-116; assay type: cell-based; details: Homo sapiens; HCT-116 cells; 10% FCS; 72 h with compound; Alamar blue 4 h; read-out: pIC50 HCT-116 (converted)
Description: (§1) Cellular proliferation of these compounds was tested on a panel of different cell lines in the presence of 10% FCS serum (37° C. and 5% (v/v) CO2). In a first step these cells were seeded and incubated for 24 hours in the absence of compound. In the second step the cells were incubated for 72 hours with the compounds to be tested for 72 hours. The viable cell number was finally assessed in a standard Alamar blue cell viability assay.
(§2) The viable cell number was assessed by incubation for either 4 h (HCT-116, H1299) 6 h (U87-MG) or 24 h (A2780, PC3, MDA-MB-231) with Alamar blue (Resazurin 9 μg/ml, K-Ferrocyanide 90 μM, K-Ferricyanide 90 μM) and the converted fluorescent product was quantified on a fluorescent plate readed (544 nm/590 nm). Effect of the compounds is calculated as of on control cells.

[2] = tested on: MDA-MB-231; assay: Cellular proliferation assay (Alamar blue), MDA-MB-231; assay type: cell-based; details: Homo sapiens, MDA-MB-231, MDA-MB-231 cells; 10% FCS; 72 h with compound; Alamar blue 24 h; read-out: pIC50 MDA/MB231 (converted)
Description: as §1, §2

[3] = tested on: A2780; assay: Cellular proliferation assay (Alamar blue), A2780; assay type: cell-based; details: Homo sapiens, A2780, A2780 cells; 10% FCS; 72 h with compound; Alamar blue 24 h; read-out: pIC50 A2780 (converted)
Description: as §1, §2

[4] = tested on: U87-MG; assay: Cellular proliferation assay (Alamar blue), U87-MG; assay type: cell-based; details: Homo sapiens, U-87 MG; U87-MG cells; 10% FCS; 72 h with compound; Alamar blue 6 h; read-out: pIC50 U87MG (converted)
Description: as §1, §2

[5] = biological target: T1, PLK4 (h) (Homo sapiens, UniProt O00444); assay: PLK-4 human kinase scintillation proximity assay (SPA); assay type: biochemical; details: 1 μM ATP, 60 minutes at r.t., read-out: PLK4 pIC50 (converted)
T1 sequence (O00444 1-970): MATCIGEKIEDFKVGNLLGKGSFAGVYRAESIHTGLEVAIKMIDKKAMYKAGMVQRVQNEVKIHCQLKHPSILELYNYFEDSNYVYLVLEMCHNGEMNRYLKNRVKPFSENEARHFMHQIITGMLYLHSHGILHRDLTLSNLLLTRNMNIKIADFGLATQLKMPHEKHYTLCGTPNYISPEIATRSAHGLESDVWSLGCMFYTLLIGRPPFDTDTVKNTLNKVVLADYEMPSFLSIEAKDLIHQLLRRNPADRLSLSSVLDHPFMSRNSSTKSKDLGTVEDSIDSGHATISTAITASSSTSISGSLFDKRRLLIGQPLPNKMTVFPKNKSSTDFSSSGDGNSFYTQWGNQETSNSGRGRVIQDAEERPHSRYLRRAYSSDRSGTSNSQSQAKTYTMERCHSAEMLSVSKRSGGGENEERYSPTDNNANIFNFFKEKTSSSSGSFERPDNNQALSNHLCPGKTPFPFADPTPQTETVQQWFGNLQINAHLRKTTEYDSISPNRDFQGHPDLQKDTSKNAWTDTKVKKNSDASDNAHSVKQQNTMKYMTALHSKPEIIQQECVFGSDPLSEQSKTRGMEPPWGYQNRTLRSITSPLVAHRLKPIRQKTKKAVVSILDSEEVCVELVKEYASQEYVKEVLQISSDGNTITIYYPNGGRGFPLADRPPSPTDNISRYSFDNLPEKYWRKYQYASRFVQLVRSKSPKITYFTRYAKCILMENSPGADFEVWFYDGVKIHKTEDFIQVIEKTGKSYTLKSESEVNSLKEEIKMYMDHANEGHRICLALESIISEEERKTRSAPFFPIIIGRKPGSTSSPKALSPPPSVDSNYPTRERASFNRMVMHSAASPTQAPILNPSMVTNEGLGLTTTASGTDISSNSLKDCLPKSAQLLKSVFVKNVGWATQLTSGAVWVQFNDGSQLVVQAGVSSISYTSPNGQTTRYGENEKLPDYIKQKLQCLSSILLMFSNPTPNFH
Description: The in vitro inhibition of a panel of kinases was assessed using either the scintillation proximity assay (SPA) as described by Cook, N. D. et al., Advances in Experimental Medicine and Biology (1991), 36; p. 525-528.
In the SPA technology the activity of the kinase of interest is measured using an appropriate biotinylated substrate that is incubated with the aforementioned kinase protein in the presence of (^33P) radiolabeled ATP. (^33P) Phosphorylation of the substrate is subsequently measured through binding of the phosphorylated substrate to streptavidine coated beads that are based on the scintillant poly(vinyl toluene) (PVT-Beads). The scintillation intensity is detected by imaging on Leadseeker.
All kinases are pre-diluted to a 10× working concentration prior to addition into the assay. The composition of the dilution buffer for each kinase is detailed below.
In a final reaction volume of 30 μl, PLK4 (h) (19 μg/ml) is incubated with 50 mM Hepes pH 8.0, 10 mM MgCl2, 50 mM NaCl, 1 mM NaF, 1 mM DTT, 10 μM of peptide Biotin-RPRGQRDSSYYWE-OH, 1 μM ATP and 2 nM [γ-^33P-ATP] (6.0 μCi/ml). After incubation of 60 minutes at r.t., the reaction is stopped by addition of 40 μL of stop solution containing 8.7 mM EDTA, BSA 0.17%, 0.17% Triton X-100, 1.7 mg/ml SPA beads (GE-healthcare). The plate is centrifuged and read for Scintillation imaging on Leadseeker.

[6] = tested on: PC3; assay: Cellular proliferation assay (Alamar blue), PC3; assay type: cell-based; details: Homo sapiens, PC-3, PC-3 cells; 10% FCS; 72 h with compound; Alamar blue 24 h; read-out: pIC50 PC-3 (converted)
Description: as §1, §2

[7] = tested on: H1299; assay: Cellular proliferation assay (Alamar blue), H1299; assay type: cell-based; details: Homo sapiens, NCI-H1299, H1299 cells; 10% FCS; 72 h with compound; Alamar blue 4 h; read-out: pIC50 H1299 (converted)
Description: as §1, §2

| Structure (SMILES) | IC50 [1] [µM] | IC50 [2] [µM] | IC50 [3] [nM] | IC50 [4] [µM] | IC50 [5] [nM] | IC50 [6] [µM] | IC50 [7] [µM] |
| --- | --- | --- | --- | --- | --- | --- | --- |
| CN1CCCCN(C)C(=O)COc2cc(ccc2OCC(=O)Nc2ccc(Cl)cc2)Nc2ncnc3[nH]cc(c23)C1 [Compound 133] | 0.0794 | 3.16 | 63.1 | 2.51 | 63.1 | 2.51 | 0.2 |
| COc1cc2cc(c1OC)OCCCC(=O)N1CCN(CC1)Cc1c[nH]c3ncnc(c13)N2 [Compound 112] | > 10 | > 10 | > 10000 | > 10 | > 10000 | > 10 | > 10 |
| COc1ccc2cc1OCCCCC(=O)N(C)CCN(C)Cc1c[nH]c3ncnc(c13)N2 [Compound 41] | > 10 | > 10 | > 10000 | > 10 | 2510 | > 10 | > 10 |
| COc1ccc2cc1OCC(=O)N1CCC[C@H]1CN(C)CCCc1c[nH]c3ncnc(c13)N2 [Compound 27] | > 10 | > 10 | > 10000 | > 10 | 6310 | > 10 | > 10 |
| CN1CCCN(C)C(=O)COc2cc(ccc2OCCOc2cc(C(F)(F)F)ccn2)Nc2ncnc3[nH]cc(c23)C1 [Compound 154] | 0.316 | 5.01 | 251 | 1 | – | 5.01 | 0.631 |
| CC(C)NC(=O)Nc1ccc2cc1OCC(=O)N(C)CCCN(C)Cc1c[nH]c3ncnc(c13)N2 [Compound 122] | 6.31 | > 10 | 3980 | > 10 | 200 | > 10 | 7.94 |
| Cc1nc2c3c(c[nH]c3n1)CN(C)CCCN(C)C(=O)COc1cc(ccc1Cl)N2 [Compound 148] | 5.01 | 10 | 1580 | 3.16 | – | 5.01 | 3.98 |
| COc1ccc2cc1OCCCC(=O)N(C)CCN(C)Cc1c[nH]c3ncnc(c13)N2 [Compound 1] | > 10 | > 10 | > 10000 | > 10 | 126 | > 10 | > 10 |
| CN1CCN(C)C(=O)CCc2cccc(c2)Nc2ncnc3[nH]cc(c23)C1 [Compound 20] | 7.94 | > 10 | > 10000 | > 10 | 631 | > 10 | 10 |
| CCOCCOc1cc(OC)c2cc1OCC(=O)N(C)CCCN(C)Cc1c[nH]c3ncnc(c13)N2 [Compound 151] | > 10 | > 10 | > 10000 | > 10 | – | > 10 | > 10 |
| CN1CCCN(C)C(=O)COc2cc(ccc2OCCNc2ncccn2)Nc2ncnc3[nH]cc(c23)C1 [Compound 159] | 2 | > 10 | 1580 | 3.16 | – | 7.94 | 6.31 |
